IC50 data for 31 molecules are collected here from patent publication US10544143B2, “4-azaindole compounds” (BRISTOL-MYERS SQUIBB COMPANY, priority 2017, dated 2020).

Where two headings read alike, the source gives them in different places. Some results are limits rather than exact numbers.

One assay has as its target human TLR8 (Homo sapiens (Human), UniProt Q9NR97). Briefly: TLR8 inhibition reporter assay (HEK-Blue SEAP).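 Note: SEAP driven by IFN-β minimal promoter carrying NF-κB and AP-1 sites, compounds dosed 0.05 nM to 50 µM for 22 h, inhibition scaled between agonist-plus-DMSO and reference-inhibitor wells.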 The conditions noted are these: read-out: TLR8 IC50. (In general: In a reporter assay the amount or activity of a reporter protein is the signal.)
Another assay has as its target human TLR7 (Homo sapiens (Human), UniProt Q9NYK1). Briefly: TLR7 inhibition reporter assay (HEK-Blue SEAP). In kind it is cell-based.
The next assay has as its target human TLR9 (Homo sapiens (Human), UniProt Q9NR96). As to the kind of experiment: TLR9 inhibition reporter assay (HEK-Blue SEAP).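 Note: SEAP driven by an IFN-β minimal promoter with NF-κB and AP-1 sites, read after 22 h, compounds dosed 0.05 nM–50 µM, inhibition scaled between agonist plus DMSO and reference-inhibitor wells.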 The conditions noted are these: read-out: TLR9 IC50.
[1] abbreviates: HEK-Blue cells overexpressing human TLR8, R848 15.9 μM stimulation, SEAP reporter.
The mark [2] stands for this setting: HEK-Blue cells overexpressing human TLR7, gardiquimod 7.5 μM stimulation, SEAP reporter.
[3] abbreviates: HEK-Blue cells overexpressing human TLR9, ODN2006 5 nM stimulation, SEAP reporter.
Setting [4] is: HEK-Blue cells overexpressing human TLR8, SEAP reporter, R848 15.9 μM.
Setting [5] is: HEK-Blue cells overexpressing human TLR7, SEAP reporter, gardiquimod 7.5 μM.
[6] abbreviates: HEK-Blue cells overexpressing human TLR9, SEAP reporter, ODN2006 5 nM.

Sequence of human TLR9 (Q9NR96 26-1032): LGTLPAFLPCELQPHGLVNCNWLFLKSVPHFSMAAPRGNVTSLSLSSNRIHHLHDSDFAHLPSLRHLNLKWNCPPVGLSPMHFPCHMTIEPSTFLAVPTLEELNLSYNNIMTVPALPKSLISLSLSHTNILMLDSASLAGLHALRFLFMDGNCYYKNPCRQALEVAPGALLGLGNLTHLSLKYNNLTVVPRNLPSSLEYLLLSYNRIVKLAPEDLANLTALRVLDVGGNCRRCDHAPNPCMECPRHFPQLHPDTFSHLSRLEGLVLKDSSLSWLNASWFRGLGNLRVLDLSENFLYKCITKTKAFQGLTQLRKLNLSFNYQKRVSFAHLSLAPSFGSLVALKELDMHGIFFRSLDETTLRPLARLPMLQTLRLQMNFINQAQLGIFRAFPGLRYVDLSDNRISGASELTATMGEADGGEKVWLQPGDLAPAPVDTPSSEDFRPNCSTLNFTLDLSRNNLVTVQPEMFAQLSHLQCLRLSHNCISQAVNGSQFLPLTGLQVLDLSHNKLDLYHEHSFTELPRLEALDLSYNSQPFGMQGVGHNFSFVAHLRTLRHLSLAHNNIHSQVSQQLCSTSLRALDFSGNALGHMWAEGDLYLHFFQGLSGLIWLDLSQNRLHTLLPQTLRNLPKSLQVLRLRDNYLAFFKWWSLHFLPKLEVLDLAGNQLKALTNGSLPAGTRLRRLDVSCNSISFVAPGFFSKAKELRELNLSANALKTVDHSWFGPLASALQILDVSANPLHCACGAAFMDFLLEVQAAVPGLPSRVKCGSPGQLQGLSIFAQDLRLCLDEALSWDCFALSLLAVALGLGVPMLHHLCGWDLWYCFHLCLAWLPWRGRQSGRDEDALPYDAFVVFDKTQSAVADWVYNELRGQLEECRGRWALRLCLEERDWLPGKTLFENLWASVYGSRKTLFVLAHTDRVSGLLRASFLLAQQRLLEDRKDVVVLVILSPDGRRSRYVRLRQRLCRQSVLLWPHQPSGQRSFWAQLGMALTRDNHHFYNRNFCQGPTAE
Sequence of human TLR7 (Q9NYK1 27-1049): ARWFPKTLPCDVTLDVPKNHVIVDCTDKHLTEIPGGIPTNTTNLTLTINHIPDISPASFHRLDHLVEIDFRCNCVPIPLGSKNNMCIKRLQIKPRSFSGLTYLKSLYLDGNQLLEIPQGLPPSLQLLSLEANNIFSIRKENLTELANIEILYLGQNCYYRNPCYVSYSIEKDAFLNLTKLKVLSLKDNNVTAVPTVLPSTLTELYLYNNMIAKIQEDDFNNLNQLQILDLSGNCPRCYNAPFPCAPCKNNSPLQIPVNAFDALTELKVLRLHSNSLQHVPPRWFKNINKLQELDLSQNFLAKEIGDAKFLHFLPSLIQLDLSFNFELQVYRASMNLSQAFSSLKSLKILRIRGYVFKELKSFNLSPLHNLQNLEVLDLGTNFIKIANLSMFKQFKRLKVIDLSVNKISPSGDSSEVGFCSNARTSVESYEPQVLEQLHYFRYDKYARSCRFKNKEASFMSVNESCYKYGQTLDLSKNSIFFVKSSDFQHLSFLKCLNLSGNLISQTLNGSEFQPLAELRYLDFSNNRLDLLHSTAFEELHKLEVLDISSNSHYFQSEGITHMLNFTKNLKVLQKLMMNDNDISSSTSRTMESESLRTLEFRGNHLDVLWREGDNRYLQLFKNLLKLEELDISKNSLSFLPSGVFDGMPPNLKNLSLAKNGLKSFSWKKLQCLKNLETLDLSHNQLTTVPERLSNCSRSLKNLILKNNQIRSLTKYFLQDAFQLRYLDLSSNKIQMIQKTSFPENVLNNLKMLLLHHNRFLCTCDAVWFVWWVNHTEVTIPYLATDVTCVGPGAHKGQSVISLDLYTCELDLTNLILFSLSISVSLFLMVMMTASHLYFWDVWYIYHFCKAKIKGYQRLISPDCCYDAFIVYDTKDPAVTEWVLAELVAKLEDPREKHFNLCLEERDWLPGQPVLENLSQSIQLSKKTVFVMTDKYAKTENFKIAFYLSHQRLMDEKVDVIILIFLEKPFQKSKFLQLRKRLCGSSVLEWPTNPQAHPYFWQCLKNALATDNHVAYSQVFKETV
Sequence of human TLR8 (Q9NR97 27-1041): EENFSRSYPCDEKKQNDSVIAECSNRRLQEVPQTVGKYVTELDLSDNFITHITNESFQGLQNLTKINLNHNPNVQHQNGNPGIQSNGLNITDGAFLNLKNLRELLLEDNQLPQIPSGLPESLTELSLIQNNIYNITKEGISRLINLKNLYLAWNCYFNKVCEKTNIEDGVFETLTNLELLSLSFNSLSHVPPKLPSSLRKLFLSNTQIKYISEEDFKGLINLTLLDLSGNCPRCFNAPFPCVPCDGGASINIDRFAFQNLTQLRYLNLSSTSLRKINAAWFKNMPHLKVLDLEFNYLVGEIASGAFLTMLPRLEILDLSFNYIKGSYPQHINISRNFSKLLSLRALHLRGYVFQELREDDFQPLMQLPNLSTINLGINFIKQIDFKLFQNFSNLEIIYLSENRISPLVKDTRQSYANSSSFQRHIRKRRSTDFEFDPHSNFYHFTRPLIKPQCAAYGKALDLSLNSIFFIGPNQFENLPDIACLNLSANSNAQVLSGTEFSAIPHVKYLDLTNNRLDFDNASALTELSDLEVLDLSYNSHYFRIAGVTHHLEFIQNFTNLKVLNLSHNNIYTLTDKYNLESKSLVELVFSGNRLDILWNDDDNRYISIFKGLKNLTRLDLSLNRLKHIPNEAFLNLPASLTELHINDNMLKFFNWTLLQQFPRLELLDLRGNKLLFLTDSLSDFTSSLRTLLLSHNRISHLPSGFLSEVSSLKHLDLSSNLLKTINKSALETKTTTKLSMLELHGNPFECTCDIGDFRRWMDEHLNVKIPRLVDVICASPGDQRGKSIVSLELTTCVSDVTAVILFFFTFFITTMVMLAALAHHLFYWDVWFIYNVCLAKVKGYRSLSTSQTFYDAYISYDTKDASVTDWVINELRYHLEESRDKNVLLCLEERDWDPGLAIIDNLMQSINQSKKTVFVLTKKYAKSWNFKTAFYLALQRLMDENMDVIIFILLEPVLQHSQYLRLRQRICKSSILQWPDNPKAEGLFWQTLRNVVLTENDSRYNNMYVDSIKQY

The term IC50 denotes the concentration needed to halve the response being measured. Turning to `Cc1c(-c2[nH]c3ccc(C4CCC(N(C)CCO)CC4)nc3c2C(C)C)cn2ncnc2c1C` (stereo not drawn) [Example 365], the IC50 at human TLR8 (setting [1]) stood at 7.9 nM; on human TLR7 (setting [2]) it was 4.2 nM; on human TLR9 (setting [3]), 3200 nM.
Take `Cc1c(-c2[nH]c3ccc(C4CCC(N(C)CCC#N)CC4)nc3c2C(C)C)cn2ncnc2c1C` (stereo not drawn) [Example 366]: the IC50 on human TLR8 (setting [1]) came out at 15 nM; against human TLR7 (setting [2]), 5.3 nM; on human TLR9 (setting [3]), 4690 nM.
In the case of `Cc1c(-c2[nH]c3ccc(C4CCC(N(C)CC(=O)N(C)C)CC4)nc3c2C(C)C)cn2ncnc2c1C` (stereo not drawn) [Example 368, 2-((4-(2-(7,8-dimethyl-[1,2,4]triazolo[1,5-a]pyridin-6-yl)-3-isopropyl-1H-pyrrolo[3,2-b]pyridin-5-yl)cyclohexyl)(methyl)amino)-N,N-dimethylacetamide], the 50% inhibitory concentration (IC50) is 2.5 nM at human TLR8 (setting [1]), 1.5 nM against human TLR7 (setting [2]) and 1610 nM at human TLR9 (setting [3]).
With `Cc1c(-c2[nH]c3ccc(C4CCC(N5CC(F)(F)C5)CC4)nc3c2C(C)C)cn2ncnc2c1C` (stereo not drawn) [Example 370], the IC50 was 23 nM at human TLR8 (setting [1]), 8.6 nM on human TLR7 (setting [2]) and more than 50000 nM at human TLR9 (setting [3]).
Taken in the same sequence, the figures for `C#CCNC1CCC(c2ccc3[nH]c(-c4cn5ncnc5c(C)c4C)c(C(C)C)c3n2)CC1` (stereo not drawn) [Example 371] were 14 nM, 6 nM and 4360 nM.
On the same counts, the results for `Cc1c(-c2[nH]c3ccc(C4CCC(N5CCC[C@@H]5CO)CC4)nc3c2C(C)C)cn2ncnc2c1C` (stereo partly drawn) [Example 372] are 7.6 nM, 3.2 nM and 1460 nM.
`Cc1c(-c2[nH]c3ccc(C4CCC(NCCC(F)(F)F)CC4)nc3c2C(C)C)cn2ncnc2c1C` (stereo not drawn) [Example 373]: the IC50 stood at 8.3 nM on human TLR8 (setting [1]), 8.6 nM against human TLR7 (setting [2]) and 1960 nM at human TLR9 (setting [3]).
On the same counts, the results for `Cc1c(-c2[nH]c3ccc(C4CCC(N5CC(F)(F)C5)CC4)nc3c2C(C)C)cn2ncnc2c1C` (stereo not drawn) [Example 374] are 187 nM, 36 nM and 21600 nM.
As to `C#CCNC1CCC(c2ccc3[nH]c(-c4cn5ncnc5c(C)c4C)c(C(C)C)c3n2)CC1` (stereo not drawn) [Example 375], the figures for the 50% inhibitory concentration (IC50) at human TLR8 (setting [1]), against human TLR7 (setting [2]) and at human TLR9 (setting [3]) were 4.4 nM, 0.87 nM and 2720 nM, respectively.
On the same counts, the results for `Cc1c(-c2[nH]c3ccc(C4CCC(NCCC(F)(F)F)CC4)nc3c2C(C)C)cn2ncnc2c1C` (stereo not drawn) [Example 376] are 1.2 nM, 0.71 nM and 1030 nM.
Taken in the same sequence, the figures for `Cc1c(-c2[nH]c3ccc(C4CCC(N5CCC[C@@H]5CO)CC4)nc3c2C(C)C)cn2ncnc2c1C` (stereo partly drawn) [Example 377] were 2.2 nM, 2.1 nM and 767 nM.
On the same counts, the results for `CCN(CC)C1CCC(c2ccc3[nH]c(-c4cn5ncnc5c(C)c4C)c(C(C)C)c3n2)CC1` (stereo not drawn) [Example 378] are 4.6 nM, 1.6 nM and 1640 nM.
Turning to `Cc1c(-c2[nH]c3ccc(C4CCC(NCCO)CC4)nc3c2C(C)C)cn2ncnc2c1C` (stereo not drawn) [Example 379], the concentration for half-maximal inhibition (IC50) on human TLR8 (setting [1]) stood at 4.7 nM; against human TLR7 (setting [2]) it was 2.6 nM; at human TLR9 (setting [3]) it was 909 nM.
In the case of `Cc1c(-c2[nH]c3ccc(C4CCC(N(C)C5CC5)CC4)nc3c2C(C)C)cn2ncnc2c1C` (stereo not drawn) [Example 380], the figures for the IC50 on human TLR8 (setting [1]), against human TLR7 (setting [2]) and at human TLR9 (setting [3]) were 1.6 nM, 1.4 nM and 1880 nM, respectively.
For the molecule `Cc1c(-c2[nH]c3ccc(C4CCC(N5CCC(F)(F)CC5)CC4)nc3c2C(C)C)cn2ncnc2c1C` (stereo not drawn) [Example 381], the figures for the IC50 on human TLR8 (setting [1]), against human TLR7 (setting [2]) and at human TLR9 (setting [3]) were 5.5 nM, 3.7 nM and 8060 nM, respectively.
As for `Cc1c(-c2[nH]c3ccc(C4CCC(N5CCS(=O)(=O)CC5)CC4)nc3c2C(C)C)cn2ncnc2c1C` (stereo not drawn) [Example 382], the values for the IC50 at human TLR8 (setting [1]), against human TLR7 (setting [2]) and at human TLR9 (setting [3]) were 22 nM, 7.8 nM and more than 50000 nM, respectively.
Taken in the same sequence, the figures for `Cc1c(-c2[nH]c3ccc(C4CCC(N5CCS(=O)(=O)CC5)CC4)nc3c2C(C)C)cn2ncnc2c1C` (stereo not drawn) [Example 383] were 167 nM, 33 nM and more than 50000 nM.
For `Cc1c(-c2[nH]c3ccc(C4CCC(NCCC#N)CC4)nc3c2C(C)C)cn2ncnc2c1C` (stereo not drawn) [Example 384], the results for the IC50 at human TLR8 (setting [1]), against human TLR7 (setting [2]) and at human TLR9 (setting [3]) were 25 nM, 13 nM and 1530 nM, respectively.
In the case of `Cc1c(-c2[nH]c3ccc(C4CCC(N5CCC(F)(F)CC5)CC4)nc3c2C(C)C)cn2ncnc2c1C` (stereo not drawn) [Example 385], the half-maximal inhibitory concentration (IC50) at human TLR8 (setting [1]) was determined as 46 nM; against human TLR7 (setting [2]) it was 22 nM; on human TLR9 (setting [3]), 11200 nM.
On the same counts, the results for `Cc1c(-c2[nH]c3ccc(C4CCC(N5CCC5)CC4)nc3c2C(C)C)cn2ncnc2c1C` (stereo not drawn) [Example 386] are 4.2 nM, 1.5 nM and 1440 nM.
For the molecule `Cc1c(-c2[nH]c3ccc(C4CCC(N(C)C5CC5)CC4)nc3c2C(C)C)cn2ncnc2c1C` (stereo not drawn) [Example 387], the IC50 at human TLR8 (setting [1]) stood at 19 nM; against human TLR7 (setting [2]) it was 7.2 nM; on human TLR9 (setting [3]), 5510 nM.
On the same counts, the results for `CCN(C)C1CCC(c2ccc3[nH]c(-c4cn5ncnc5c(C)c4C)c(C(C)C)c3n2)CC1` (stereo not drawn) [Example 388] are 2.2 nM, 0.87 nM and 891 nM.
Regarding `COCCN(C)C1CCC(c2ccc3[nH]c(-c4cn5ncnc5c(C)c4C)c(C(C)C)c3n2)CC1` (stereo not drawn) [Example 389], the IC50 at human TLR8 (setting [1]) is 1.6 nM; against human TLR7 (setting [2]) it was 0.45 nM; at human TLR9 (setting [3]), 923 nM.
For the molecule `CCN(C)C1CCC(c2ccc3[nH]c(-c4cn5ncnc5c(C)c4C)c(C(C)C)c3n2)CC1` (stereo not drawn) [Example 390], the IC50 at human TLR8 (setting [1]) came to 7.6 nM; against human TLR7 (setting [2]), 1.6 nM; at human TLR9 (setting [3]) it was 3090 nM.
For the molecule `COCCN(C)C1CCC(c2ccc3[nH]c(-c4cn5ncnc5c(C)c4C)c(C(C)C)c3n2)CC1` (stereo not drawn) [Example 391], the IC50 is 14 nM on human TLR8 (setting [1]), 2.6 nM at human TLR7 (setting [2]) and 2450 nM on human TLR9 (setting [3]).
Regarding `Cc1c(-c2[nH]c3ccc(C4CCC(N5CCC[C@H]5CO)CC4)nc3c2C(C)C)cn2ncnc2c1C` (stereo partly drawn) [Example 392], the IC50 at human TLR8 (setting [1]) is 6.1 nM; at human TLR7 (setting [2]), 3.2 nM; at human TLR9 (setting [3]), 1750 nM.
On the same counts, the results for `Cc1c(-c2[nH]c3ccc(C4CCC(N5CCC[C@H]5CO)CC4)nc3c2C(C)C)cn2ncnc2c1C` (stereo partly drawn) [Example 393] are 1.3 nM, 0.47 nM and 360 nM.
In the case of `Cc1ncc(CN(C)C2CCC(c3ccc4[nH]c(-c5cn6ncnc6c(C)c5C)c(C(C)C)c4n3)CC2)cn1` (stereo not drawn) [Example 394], the IC50 turned out to be 1.5 nM at human TLR8 (setting [1]), 1.4 nM at human TLR7 (setting [2]) and 1410 nM at human TLR9 (setting [3]).
Regarding `COc1ncc(CN(C)C2CCC(c3ccc4[nH]c(-c5cn6ncnc6c(C)c5C)c(C(C)C)c4n3)CC2)cn1` (stereo not drawn) [Example 395], the IC50 on human TLR8 (setting [4]) worked out at 10 nM; at human TLR7 (setting [5]) it was 7.4 nM; on human TLR9 (setting [6]), 1620 nM.
Taken in the same sequence, the figures for `Cc1c(-c2[nH]c3ccc(C4CCC(N(C)C(=O)CN(C)C)CC4)nc3c2C(C)C)cn2ncnc2c1C` (stereo not drawn) [Example 396] were 17 nM, 1.7 nM and 1530 nM.
On the same counts, the results for `Cc1c(-c2[nH]c3ccc(C4CCC(N(C)Cc5c[nH]nn5)CC4)nc3c2C(C)C)cn2ncnc2c1C` (stereo not drawn) [Example 397] are 10 nM, 6.3 nM and 2400 nM.
